Assay in all cases: inhibition of tumour cell growth, NCI panel, 48 h
Test [1] deals with OVCAR-5.
Test [2] deals with SR.
The subject of test [3] is HCT-15.
Test [4] has as its system EKVX.
Test [5] deals with SW-620.
Test [6] has as its system SN12C.
Test [7] concerns M14.
Test [8] concerns NCI-H23.
Test [9] concerns 786-0.
Test [10] deals with SF-295.
Test [11] deals with A549.
Test [12] has as its system KM12.
In test [13] the test system is HOP-92.
Test [14] relates to HCT-116.
The subject of test [15] is SF-268.
In test [16] the test system is NCI-H522.
Test [17] has as its system Hs-578T.
Test [18] relates to NCI/ADR-RES.
Test [19] concerns MDA-MB-231.

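Dose response: 5 concentrations. Exposure: 48 h. Format: 96-well plates. Endpoint: linear interpolation; highest concentration if not reached. The concentration for 50% growth inhibition is given as GI50.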 Activity calls are given as the source filed them. Rule as the data show it: active = GI50 up to about 1.1 µM and inactive = higher.

As for `COC(=O)c1cc(OC(C)=O)c2c(OC)ccc(OC)c2c1`, the GI50 in test [1] is > 100 µM (inactive); in test [2], 86.1 µM (inactive); in [3], 64.6 µM; in [4] it was > 100 µM (inactive); in [5], > 100 µM (inactive); in test [6], > 100 µM (inactive). Moreover, the GI50 in test [7], in test [8], in test [9], in test [10], in test [11] and in [12] was > 100 µM (inactive) in each case. Moreover, the GI50 in test [13] and in test [14] was > 100 µM (inactive) throughout.

On to `CC(=O)NNc1nc(C)c(C(/C=C/c2ccc(Cl)cc2)=N/NC(=S)NN)s1`, for which the GI50 in [1] was > 100 µM (inactive); in test [15], > 100 µM (inactive); in test [16] it was > 100 µM (inactive); in [2], > 100 µM (inactive); in test [3] it was more than 100 µM; in test [4], > 100 µM (inactive). For the same molecule, the GI50 in test [5], in test [6], in test [7], in test [8], in [9] and in test [10] was > 100 µM (inactive) in each case. In addition, the GI50 in test [11], in test [12], in test [13] and in test [14] was > 100 µM (inactive) throughout.

`CN(C)/N=N/c1ccc(C(N)=O)cc1`: the GI50 in test [1] is > 100 µM (inactive); in test [15], > 100 µM (inactive); in [16], > 100 µM (inactive); in [2] it was > 100 µM (inactive); in test [3], more than 100 µM; in test [4], > 100 µM (inactive). Besides, the GI50 in test [5], in [6], in test [7], in test [8], in [9] and in test [10] was > 100 µM (inactive) throughout. Moreover, the GI50 in test [11], in [12], in [13] and in test [14] was > 100 µM (inactive) each time.

For the molecule `COc1cc(C(=O)O)cc2c1[nH]c1ccccc12` [MUKOEIC ACID], the GI50 in [1] was > 25 µM (inactive); in test [15], > 25 µM (inactive); in [16] it was > 25 µM (inactive); in test [2] it was > 25 µM (inactive); in test [3], more than 25 µM; in [5] it was > 25 µM (inactive). In addition, the GI50 in test [6], in test [7], in test [9], in test [11], in test [12] and in test [13] was > 25 µM (inactive) each time. Further, the GI50 in test [14] was > 25 µM (inactive).

Take `CC(C)=CC(=O)Cc1nc2cc(C)c(C)cc2[nH]c1=O`: the GI50 in test [1] is > 100 µM (inactive); in [15], 99.3 µM (inactive); in [2] it was > 100 µM (inactive); in test [3] it was more than 100 µM; in test [4], 9.89 µM (inactive); in [5], > 100 µM (inactive). Further, the GI50 in test [6] is > 100 µM (inactive); in [7] it was > 100 µM (inactive); in test [8] it was > 100 µM (inactive); in test [9], > 100 µM (inactive); in test [10], 90.4 µM (inactive); in test [11] it was > 100 µM (inactive). Besides, the figures for the GI50 in [12], in test [13] and in test [14] were > 100 µM (inactive), 24.9 µM (inactive) and > 100 µM (inactive), respectively.

Turning to `CCOC(=O)Cn1c(=O)n(C)c(=O)c2c1ncn2Cc1ccccc1`, the GI50 in test [1] is > 100 µM (inactive); in test [15] it was > 100 µM (inactive); in test [16] it was > 100 µM (inactive); in test [2] it was > 100 µM (inactive); in [3], more than 100 µM; in test [4] it was > 100 µM (inactive). Also, the GI50 in test [5], in [6], in test [7], in [8], in test [9] and in [11] was > 100 µM (inactive) in each case. Moreover, the GI50 in [12], in [13] and in test [14] was > 100 µM (inactive) throughout.

Regarding `O=c1c2cccc3cccc(c4n1CCCN=4)c32`, the GI50 is 88.1 µM (inactive) in test [1]; > 100 µM (inactive) in test [15]; > 100 µM (inactive) in test [16]; 31.3 µM (inactive) in [2]; more than 100 µM in test [3]; > 100 µM (inactive) in [4]. Also, the GI50 in test [5] is 92.5 µM (inactive); in test [6], > 100 µM (inactive); in test [7], > 100 µM (inactive); in test [8], > 100 µM (inactive); in test [9], > 100 µM (inactive); in test [10], > 100 µM (inactive). Moreover, the GI50 was > 100 µM (inactive) in test [11], > 100 µM (inactive) in test [12], > 100 µM (inactive) in [13] and 31 µM (inactive) in test [14].

In the case of `CC(=O)C1=CSC2[C@H](NC(=O)Cc3ccccc3)C(=O)N2C1C(=O)OC(c1ccccc1)c1ccccc1` (some centres undefined), the GI50 was 47.6 µM (inactive) in test [15]; > 100 µM (inactive) in test [16]; 36.7 µM (inactive) in test [2]; > 100 µM (inactive) in test [4]; 93.5 µM (inactive) in [5]; > 100 µM (inactive) in test [6]. Besides, the GI50 in test [7] was > 100 µM (inactive); in test [8], 51.6 µM (inactive); in [9], 60.5 µM (inactive); in [10], 40.7 µM (inactive); in test [11], 91.8 µM (inactive); in test [12], > 100 µM (inactive). Moreover, the GI50 was 46.5 µM (inactive) in test [13] and > 100 µM (inactive) in test [14].

With `OCCCCn1cnc2c(O)ncnc21`, the GI50 in test [1] is > 100 µM (inactive); in test [15], > 100 µM (inactive); in test [2], > 100 µM (inactive); in test [3], more than 100 µM; in [4], > 100 µM (inactive); in [5], > 100 µM (inactive). The GI50 in test [6], in test [7], in test [8], in [9], in test [10] and in test [11] was > 100 µM (inactive) each time. The GI50 in test [12], in test [13] and in test [14] was > 100 µM (inactive) in each case.

Regarding `Clc1nc(Cl)c(Cl)c(-c2ccccc2)n1`, the GI50 in [1] was 20.3 µM (inactive); in test [15] it was 23.9 µM (inactive); in test [17], 2.73 µM (inactive); in test [16], 1.67 µM (inactive); in test [18], 5.62 µM (inactive); in [2], 0.322 µM (active). Further, the GI50 is 11.4 µM in test [3]; 16.6 µM (inactive) in test [4]; 1.94 µM (inactive) in [5]; 20 µM (inactive) in test [6]; 1.77 µM (inactive) in test [7]; 15.8 µM (inactive) in test [8]. The GI50 in test [9] was 2.21 µM (inactive); in test [10], 3.93 µM (inactive); in test [11], 13.8 µM (inactive); in test [12], 5.02 µM (inactive).

Consider `CCOC(=O)NC(=O)c1cn(CCN2CCN(C(=O)CCCCCCCCCCNc3ncnc4c3ncn4C3OC(CO)C(O)C3O)CC2)c(=O)[nH]c1=O` (centres undefined), for which the GI50 in test [15] was > 100 µM (inactive); in [2], > 100 µM (inactive); in test [3], more than 100 µM; in test [5], > 100 µM (inactive); in test [6], > 100 µM (inactive); in [7] it was > 100 µM (inactive). Further, the GI50 in test [8] is > 100 µM (inactive); in test [9] it was > 100 µM (inactive); in test [10] it was > 100 µM (inactive); in [11] it was > 100 µM (inactive); in test [12], > 100 µM (inactive); in test [13], 70.3 µM (inactive). For the same molecule, the GI50 in [14] is > 100 µM (inactive).

Regarding `CC12CCC(/C(=N/c3cc(C(F)(F)F)cc(C(F)(F)F)c3)C1=O)C2(C)C` (centres undefined), the GI50 was 56.4 µM (inactive) in test [1]; 33.3 µM (inactive) in test [15]; 44.3 µM (inactive) in [18]; 18.8 µM (inactive) in [2]; 29.1 µM in [3]; 78.7 µM (inactive) in [4]. Further, the GI50 in test [19] was 36.9 µM (inactive); in [5] it was 28.1 µM (inactive); in test [7], 30.6 µM (inactive); in test [8], 25.7 µM (inactive); in test [9] it was 35.5 µM (inactive); in [10] it was 41.9 µM (inactive). For the same molecule, the GI50 in test [11] was 31.9 µM (inactive); in test [12], 26.4 µM (inactive); in [14], 27.7 µM (inactive).

With `COc1cc(C(=O)Nc2cccc3ccccc23)c(Br)c(OC)c1OC`, the GI50 is 64.4 µM (inactive) in test [1]; 97.1 µM (inactive) in test [15]; 56.9 µM (inactive) in test [16]; > 100 µM (inactive) in test [2]; more than 100 µM in [3]; > 100 µM (inactive) in test [4]. The GI50 in test [5] was > 100 µM (inactive); in test [6] it was > 100 µM (inactive); in test [7], > 100 µM (inactive); in test [8], 82 µM (inactive); in test [9], 1.38 µM (inactive); in test [10], > 100 µM (inactive). Moreover, the GI50 in test [11] is 66.2 µM (inactive); in [12] it was 70.3 µM (inactive); in test [13], 42.2 µM (inactive); in [14], 67.9 µM (inactive).

The values are drawn from ChEMBL document CHEMBL1201862, “PubChem BioAssay data set” (2004).
